From US11999746B2, “Compounds” (GlaxoSmithKline Intellectual Property Development Limited, priority 2014, dated 2024)
Where two headings read alike, the source gives them in different places.

Experiments:
Lp-PLA2 in human plasma = biological target: T1, Lp-PLA2 in human plasma (Homo sapiens, UniProt Q13093); experiment: (3b) Lp-PLA2 human plasma alternative Thio-PAF assay; assay type: biochemical; conditions: pooled human plasma, read-out: pIC50 in the Lp-PLA2 human plasma assay (converted)
T1 construct: from tissue; host or cells: pooled human plasma
T1 sequence (Q13093 22-441): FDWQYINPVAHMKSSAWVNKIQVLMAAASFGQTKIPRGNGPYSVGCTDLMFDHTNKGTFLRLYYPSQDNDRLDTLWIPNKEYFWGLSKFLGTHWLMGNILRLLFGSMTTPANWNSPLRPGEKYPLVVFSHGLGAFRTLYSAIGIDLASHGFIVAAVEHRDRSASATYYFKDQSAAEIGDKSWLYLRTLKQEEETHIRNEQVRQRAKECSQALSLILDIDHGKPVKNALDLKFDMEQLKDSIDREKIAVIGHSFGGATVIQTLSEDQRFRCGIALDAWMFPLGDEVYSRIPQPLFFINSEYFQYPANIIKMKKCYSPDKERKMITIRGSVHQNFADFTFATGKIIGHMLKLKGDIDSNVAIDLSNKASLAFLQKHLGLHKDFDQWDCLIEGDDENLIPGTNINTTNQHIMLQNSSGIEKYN
Protocol: (3b) Alternative Thio-PAF Assay
The human plasma assay utilizes the same thioester analog of PAF as described in (1b) “hr ThioPAF” assay. This assay may detect the activity of Lp-PLA2 in human plasma, as determined by specific inhibition by Lp-PLA2 inhibitors.
The thio-PAF assay was run as a quenched 20 μL assay. Compounds source plate was prepared by making 1:3 (by volume) serial dilution of the compounds into pure DMSO on 96-well microplate. 5 μL of compounds on compound source plate were transferred to 96-well Corning 3686 (black) low-volume plates by STAR+(Hamilton) liquid dispenser. 10 μL pooled human plasma, which was previously aliquoted and frozen, was added. Plates were centrifuged for 30 sec at 1000 rpm. After 15 minutes preincubation at room temperature, 5 μL of substrate solution comprising 2 mM 2-thio-PAF [from ethanol stock], 52 μM CPM [from a DMSO stock] and 2.5 mM NEM (N-ethylmaleimide) [made fresh daily in DMSO] in assay buffer (50 mM HEPES, pH 7.4, 150 mM NaCl, 1 mM CHAPS) was added to 96-well Corning 3686 (black) low-volume plates. After 3 mins, reaction was quenched with 10 μL of 5% aqueous trifluoroacetic acid (TFA). Plates were centrifuged 30 sec at 1000 rpm, covered to protect from light and incubated for 10 min at room temperature. Plates were read at ex: 380 nm/em: 485 nm using Envision plate reader (Perkin Elmer). Raw data were transferred to Excel software and pIC50 data, curve and QC analysis was conducted by using XL fit module in Excel.

[1] = biological target: T2, recombinant human Lp-PLA2 (Homo sapiens, UniProt Q13093); experiment: (1b) hrThioPAF assay, recombinant human Lp-PLA2; assay type: biochemical; conditions: Examples 266-412 were tested here, one experiment or average of multiple experiments, read-out: rhLp-PLA2 (pIC50) (converted)
T2 sequence (Q13093 22-441): T1 sequence (Q13093 22-441)
From the text: 1-O-Hexadecyl-2-deoxy-2-thio-S-acetyl-sn-glyceryl-3-phosphorylcholine (2-thio-PAF) is a substrate for PAF-hydrolases (PAF-AH) commercially available from Cayman Chemical. Upon cleavage with PAF-AH, the free thiol is released at the sn-2 position and can then react with 7-diethylamino-3-(4′-maleimidylphenyl)-4-methylcoumarin (CPM) a thiol-reactive coumarin. This reaction (Michael addition) results in an increase in fluorescence. Inhibitors of Lp-PLA2 therefore prevent this cleavage and no fluorescent increase is observed.
The Thio-PAF assay was run as an unquenched 20 μL assay. The source plate containing the compounds to be tested was prepared by making 1:3 (by volume) serial dilution of the compounds within DMSO on 384-well microplate. Then, 5 μL of the compounds on compound source plate were transferred into 384 well Greiner 784076 (black) plates using STAR+(Hamilton) liquid dispenser. 10 μL of recombinant human Lp-PLA2 enzyme (20 pM rhLp-PLA2 in assay buffer of 50 mM HEPES, pH 7.4, 150 mM NaCl, 1 mM CHAPS) was added to each well of the plate. 5 μL of substrate comprising 40 μM 2-thio-PAF [from ethanol stock], 40 μM CPM [from a DMSO stock] and 400 μM NEM (N-ethylmaleimide) [made fresh daily in DMSO] in assay buffer (50 mM HEPES, pH 7.4, 150 mM NaCl, 1 mM CHAPS) was added to 384 well Greiner 784076 black plates. Plates were vortexed for 10 sec. The plate was covered to protect it from light and incubated for 20 min at 25° C. The plates were read for fluorescence intensity at ex: 380 nm/em: 485 nm using Envision plate reader (Perkin Elmer). Raw data were transferred to Excel software and pIC50 data, curve and QC analysis was conducted by using XL fit module in Excel.

[2] = (3b) alternative Thio-PAF assay, Examples of 266-412 were tested here
[3] = (3a) Thio-PAF assay, Examples 1-265 and 413-430 were tested here

Structure (SMILES)	IC50 (Lp-PLA2 in human plasma; [2]) [nM]	IC50 [1] [nM]	IC50 (Lp-PLA2 in human plasma; [3]) [nM]
CCOC(=O)C(C)N1CCN2c3cc(OCc4ccc(F)c(F)c4)nc(=O)n3CC2C1 (single isomer, unassigned) [Example E327, Ethyl 2-(7-((3,4-difluorobenzyl)oxy)-9-oxo-3,4,11,11a-tetrahydro-1H-pyrazino[1′,2′:3,4]imidazo[1,2-c]pyrimidin-2(9H)-yl)propanoate]	≤ 100		
CN1c2cc(OCc3ccc(F)c(F)c3)nc(=O)n2CC12COC2 [Example 398, 7-((3,4-Difluorobenzyl)oxy)-1-methyl-1H-spiro[imidazo[1,2-c]pyrimidine-2,3′-oxetan]-5(3H)-one]	≤ 100	≤ 10000	
Cc1ccc(Oc2c(F)cc(COc3cc4n(c(=O)n3)CC3(COC3)N4C)cc2C#N)cn1 [Example 399, 3-Fluoro-5-(((1-methyl-5-oxo-3,5-dihydro-1H-spiro[imidazo[1,2-c]pyrimidine-2,3′-oxetan]-7-yl)oxy)methyl)-2-((6-methylpyridin-3-yl)oxy)benzonitrile]	≤ 100	≤ 10000	
Cc1ccc(Oc2c(F)cc(COc3cc4n(c(=O)n3)CC3(COC3)N4C)cc2F)cn1 [Example 400, 7-((3,5-Difluoro-4-((6-methylpyridin-3-yl)oxy)benzyl)oxy)-1-methyl-1H-spiro[imidazo[1,2-c]pyrimidine-2,3′-oxetan]-5(3H)-one]	≤ 100	≤ 10000	
O=c1nc(OCc2cc(F)c(Oc3cncc(C(F)(F)F)c3)c(F)c2)cc2n1CC1(CCOCC1)N2 [Example 401, 7-((3,5-Difluoro-4-((5-(trifluoromethyl)pyridin-3-yl)oxy)benzyl)oxy)-2′,3′,5′,6′-tetrahydro-1H-spiro[imidazo[1,2-c]pyrimidine-2,4′-pyran]-5(3H)-one]	≤ 100	0.631	
O=c1nc(OCc2ccc(F)c(F)c2)cc2n1CC1(CCOCC1)N2 [Example 402, 7-((3,4-Difluorobenzyl)oxy)-2′,3′,5′,6′-tetrahydro-1H-spiro[imidazo[1,2-c]pyrimidine-2,4′-pyran]-5(3H)-one]	≤ 100	≤ 10000	
Cc1ccc(Oc2c(F)cc(COc3cc4n(c(=O)n3)CC3(CCOCC3)N4)cc2F)cn1 [Example 403, 7-((3,5-Difluoro-4-((6-methylpyridin-3-yl)oxy)benzyl)oxy)-2′,3′,5′,6′-tetrahydro-1H-spiro[imidazo[1,2-c]pyrimidine-2,4′-pyran]-5(3H)-one]	≤ 100	≤ 10000	
Cc1ccc(Oc2c(F)cc(COc3cc4n(c(=O)n3)CC3(CCOCC3)N4C)cc2F)cn1 [Example 405, 7-((3,5-Difluoro-4-((6-methylpyridin-3-yl)oxy)benzyl)oxy)-1-methyl-2′,3′,5′,6′-tetrahydro-1H-spiro[imidazo[1,2-c]pyrimidine-2,4′-pyran]-5(3H)-one]	≤ 100	≤ 100	
O=c1nc(OCc2ccc(F)c(F)c2)cc2n1CC1(CCNCC1)N2 [Example 406, 7-((3,4-Difluorobenzyl)oxy)-1H-spiro[imidazo[1,2-c]pyrimidine-2,4′-piperidin]-5(3H)-one]	≤ 100	≤ 10000	
CC(=O)N1CCC2(CC1)Cn1c(cc(OCc3ccc(F)c(F)c3)nc1=O)N2C(C)=O [Example 408, 1,1-(7-((3,4-difluorobenzyl)oxy)-5-oxo-1H-spiro[imidazo[1,2-c]pyrimidine-2,4′-piperidin]-1,1′(3H,5H)-diyl)diethanone]	≤ 100	≤ 10000	
O=c1nc(OCc2cc(F)c(Oc3cncc(C(F)(F)F)c3)c(F)c2)cc2n1CC1(CCN(Cc3ccccc3)CC1)N2 [Example 411, 1′-Benzyl-7-((3,5-difluoro-4-((5-(trifluoromethyl)pyridin-3-yl)oxy)benzyl)oxy)-1H-spiro[imidazo[1,2-c]pyrimidine-2,4′-piperidin]-5(3H)-one]	≤ 100	≤ 1	≤ 10000
N#Cc1cc(COc2cc3n(c(=O)n2)CC2(CCN(Cc4ccccc4)CC2)N3)ccc1F [Example 412, 5-(((1′-Benzyl-5-oxo-3,5-dihydro-1H-spiro[imidazo[1,2-c]pyrimidine-2,4′-piperidin]-7-yl)oxy)methyl)-2-fluorobenzonitrile]		≤ 10000	≤ 10000
N#Cc1cc(COc2cc3n(c(=O)n2)CC2CNCCN32)ccc1F (centres unmarked) [Example E266, 2-Fluoro-5-(((9-oxo-2,3,4,9,11,11a-hexahydro-1H-pyrazino[1′,2′:3,4]imidazo[1,2-c]pyrimidin-7-yl)oxy)methyl)benzonitrile]	≤ 100	≤ 100	
O=c1nc(OCc2ccc(Oc3ccnc(C(F)(F)F)c3)c(F)c2)cc2n1CC1CNCCN21 (centres unmarked) [Example E267, 7-((3-Fluoro-4-((2-(trifluoromethyl)pyridin-4-yl)oxy)benzyl)oxy)-3,4,11,11a-tetrahydro-1H-pyrazino[1′,2′:3,4] imidazo [1,2-c]pyrimidin-9(2H)-one]	≤ 100	≤ 100	
O=C(O)C(F)(F)F.[2H]C1([2H])C2CNCCN2c2cc(OCc3ccc(F)c(C#N)c3)nc(=O)n21 (centres unmarked) [Example E269, 5-(((11,11-Dideutero-9-oxo-2,3,4,9,11,11a-hexahydro-1H-pyrazino[1′,2′:3,4]imidazo [1,2-c]pyrimidin-7-yl)oxy)methyl)-2-fluorobenzonitrile 2,2,2-trifluoroacetate]	≤ 100	≤ 10000	
O=c1nc(OCc2cc(F)c(Oc3ccnc(C(F)(F)F)c3)c(F)c2)cc2n1CC1CNCCN21 (centres unmarked) [Example E270, 7-((3,5-Difluoro-4-((2-(trifluoromethyl)pyridin-4-yl)oxy)benzyl)oxy)-3,4,11,11a-tetrahydro-1H-pyrazino[1′,2′:3,4] imidazo [1,2-c]pyrimidin-9(2H)-one]	≤ 100	≤ 10000	
N#Cc1cccc(COc2cc3n(c(=O)n2)CC2CNCCN32)c1 (centres unmarked) [Example E272, 3-(((9-Oxo-2,3,4,9,11,11a-hexahydro-1H-pyrazino[1′,2′:3,4]imidazo [1,2-c]pyrimidin-7-yl)oxy)methyl) benzonitrile]	≤ 100	≤ 10000	
O=c1nc(OCc2cc(F)c(Oc3cncc(C(F)(F)F)c3)c(F)c2)cc2n1CC1CNCCN21 (centres unmarked) [Example E273, 7-((3,5-Difluoro-4-((5-(trifluoromethyl)pyridin-3-yl)oxy)benzyl)oxy)-3,4,11,11a-tetrahydro-1H-pyrazino[1′,2′:3,4] imidazo [1,2-c]pyrimidin-9(2H)-one]	≤ 100	≤ 1	
N#Cc1cc(COc2cc3n(c(=O)n2)C[C@H]2C[C@@H](N)CN32)ccc1F [Example E389, 5-((((7R,8aR)-7-Amino-1-oxo-1,6,7,8,8a,9-hexahydropyrrolo[1′,2′:3,4]imidazo[1,2-c]pyrimidin-3-yl)oxy)methyl)-2-fluorobenzonitrile]		≤ 10000	
Cn1cc(Oc2c(F)cc(COc3cc4n(c(=O)n3)CC3(COC3)N4)cc2F)cn1 [Example E393]		≤ 10000	
